Laboratory results taken from PMC12621202, “RTx-303, an Orally Bioavailable Polθ Polymerase Inhibitor That Potentiates PARP Inhibitors in BRCA Mutant Tumors” (Journal of Medicinal Chemistry, 2025).
Read-outs that look alike come from different tables or passages of the source.

How the values were obtained:
[1] = biological target: T1, recombinant human Polθ-pol (Homo sapiens, UniProt O75417); assay: Fluorescent-based IC50 DNA synthesis assay; type: biochemical; conditions: n=3
T1 construct: purified recombinant human Polθ-pol (comprising amino acid residues 1792–2590); made in house
T1 sequence (O75417 1792-2590): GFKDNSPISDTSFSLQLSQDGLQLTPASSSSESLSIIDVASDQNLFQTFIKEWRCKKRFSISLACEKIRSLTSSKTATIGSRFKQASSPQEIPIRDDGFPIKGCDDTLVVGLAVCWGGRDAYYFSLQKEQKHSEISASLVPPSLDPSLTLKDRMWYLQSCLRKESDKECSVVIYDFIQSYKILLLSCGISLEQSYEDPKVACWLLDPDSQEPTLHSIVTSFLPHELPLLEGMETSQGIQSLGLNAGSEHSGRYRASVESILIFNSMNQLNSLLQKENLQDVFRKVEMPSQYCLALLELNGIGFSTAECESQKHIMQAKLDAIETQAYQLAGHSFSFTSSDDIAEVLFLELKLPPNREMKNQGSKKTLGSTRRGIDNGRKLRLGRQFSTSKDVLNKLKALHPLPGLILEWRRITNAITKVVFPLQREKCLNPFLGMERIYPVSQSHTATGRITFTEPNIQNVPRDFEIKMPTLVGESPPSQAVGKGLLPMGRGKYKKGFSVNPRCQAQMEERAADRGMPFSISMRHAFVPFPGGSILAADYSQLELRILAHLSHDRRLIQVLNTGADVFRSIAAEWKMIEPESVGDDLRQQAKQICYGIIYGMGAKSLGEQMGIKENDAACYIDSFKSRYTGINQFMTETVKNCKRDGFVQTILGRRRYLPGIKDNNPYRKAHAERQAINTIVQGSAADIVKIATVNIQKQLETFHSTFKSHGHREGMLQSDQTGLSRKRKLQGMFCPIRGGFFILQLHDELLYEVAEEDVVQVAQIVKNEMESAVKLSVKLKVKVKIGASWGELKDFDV
Protocol: The biochemical Polθ-pol IC50 assay was developed in a prior report. Briefly, 60 nM of the preannealed primer-template containing a 5′ Cy5 fluorophore-conjugated template strand (RP486-Cy5), a downstream complementary oligo conjugated with a 3′ Iowa BlackReg Dark quencher (RP343BHQRQ) and a primer strand (RP469D) was mixed with 50 μM 2’-deoxyribonucleoside triphosphates (dNTPs), 0.1 mg/mL bovine serum albumin (BSA), 0.01% NP-40, 10% glycerol, 1 mM dithiothreitol (DTT), 10 mM MgCl2, 25 mM TrisHCl pH 7.8 in the presence of 2.5% DMSO with or without various concentrations (7-point dilution series) of Polθ-pol small-molecule inhibitors at 37 °C in a volume of 40 μL. The reactions were initiated by the addition of 5 nM of purified recombinant human Polθ-pol (comprising amino acid residues 1792–2590). The reactions were terminated by the addition of 20 mM EDTA after 18 min, and the Cy5 fluorescence intensity was measured using a CLARIOstar (BMG Labtech) plate reader. Reactions were performed in triplicate and the % inhibition at each concentration of the respective compound was based on the mean.

[2] = Solubility (PBS, 2% DMSO); type: physicochemical; conditions: PBS with 2% DMSO, aqueous buffer, kinetic from dmso stock
Text: Solubility T1/2 simulated simulated
(PBS, 2% T1/2 mouse intestinal gastric
CF R1 OHOH DMSO) PBS plasma fluid fluid
F3C N N >200 µMN >3 hr >3 hr >3 hr > 3 hr
NN >200 HOµMN >3 hr >3 hr >3 hr > 3 hr
Supplementary Fig. 2 Solubility and stability of RTx-284 and RTx-283.

[3] = test system: BRCA2^-/- HCT116; assay: Clonogenic (colony) survival assay; type: cell-based, human; conditions: for IC50: Homo sapiens; for fold lower IC50 in BRCA2–/– HCT116 cells compared to RTx-161 / selectivity against BRCA2–/– versus BRCA+/+ HCT116 cells: clonogenic survival
Protocol: (§1) Colony survival assays were performed on 24-well plates. 800 cells/well of HCT, DLD1- BRCA2 −/–, PALB2 −/–, MEF BRCA1 […], PEO1, SNU-601, SKOV3- BRCA2 −/–, OVCAR8 cells and 200 cells/well of HCT, DLD1, MEF, SKOV3 wildtype cells were plated. For MDA pair, 500 cells/well of MDA436 and 100 cells of MDA231 were plated. Cells were treated with the compound 24 h after plating and the medium was replaced every two or 3 days until the colonies were ready for staining. Colonies were typically ready for staining in 10–12 days. For staining: Medium was removed from plates, and cells were rinsed with PBS. Fixation was carried out with Water:Ethanol:Acetic acid (5:4:1) for 30 min followed by staining of colonies with 0.5% crystal violet in Water:Ethanol (3:2) for 2 h at room temperature. The plates were rinsed with water and left for drying overnight at room temperature. Colonies were then counted manually, and response curves are shown as mean colony formation ± SEM. IC50 was calculated with GraphPad Prism using nonlinear regression analysis, inhibitor vs response (variable slope) equation.

[4] = Plasma protein binding (species not given); type: in vitro ADME
Text: 3 Dimethylamine Side-Chain Increases Oral Bioavailability | column: Plasma protein binding (%)

[5] = test system: HRD cell lines (MDA-MB-436, PE01 and other BRCA mutant cells); assay: Synergy with PARPi (Combenefit); type: cell-based, human
Protocol: […] Each sample had three replicates. The medium was replaced every 2 days. Cell viability was assessed after 5-day treatment by the WST-1 assay (Sigma, Cat. # 5015944001) according to the manufacturer instructions.

[6] = test system: other recombinant DNA polymerases, including the related A-family Polγ; assay: DNA polymerase selectivity (primer extension); type: biochemical; conditions: in vitro primer extension
Text: A. Denaturing gel showing primer extension by the indicated DNA polymerases in the presence or absence of RT x-303. B. Bar plot showing % relative extension by the indicated DNA polymerases in the presence and absence of RT x-303.
(also on this page, place not known: Extension to DMSO control RTx-303. % relative RTx-303.)
(1 picture or pasted object on this page, not shown here)

[7] = test system: HRD cells versus HR-proficient cells; assay: Colony survival in HRD and HR-proficient cell lines; type: cell-based; conditions: IC50 bar plots, values not given
Protocol: as §1

[8] = Hepatocyte stability; type: in vitro ADME; conditions: rat (SD) hepatocytes, male; read-out: Rat (SD)^+ (T1/2 min)
[9] = Hepatocyte stability; type: in vitro ADME; conditions: cynomolgus monkey; monkey hepatocytes, male; read-out: Monkey (Cynomologous) ^+ (T1/2 min)
[10] = Rat plasma protein binding; type: in vitro ADME
Text: 5 Pharmacokinetics of Pure Enantiomers and Equipotent Metabolites | column: Avg. free unbound exposure (nM/hr) / Rat plasma protein binding (% free)

[11] = HCT-116, read-out: IC50 BRCA2^-/- HCT116 (μM)

| SMILES | IC50 [1] [nM] | solubility [2] [µM] | IC50 [3, 11] [µM] | fold lower IC50 in BRCA2–/– HCT116 cells compared to RTx-161 [3] [fold] | selectivity against BRCA2–/– versus BRCA+/+ HCT116 cells [3] [fold] | fraction unbound [4] | synergy with multiple PARPi ([5]; MDA-MB-436 (BRCA1 mutant) and PE01 (BRCA2 mutant) cell lines) | inhibition of other DNA polymerases [6] | killing of HRD versus HR-proficient cell lines [7] | synergistic activity with PARPi ([5]; BRCA mutant cells in vitro, niraparib) | half-life at 1 μM [8] [min] | IC50 ([3]; HCT-116, read-out: IC50(nM) HCT116 BRCA2 –/–) [µM] | half-life at 1 μM [9] [min] | Rat plasma protein binding (% free) [10] [% free] |
| --- | --- | --- | --- | --- | --- | --- | --- | --- | --- | --- | --- | --- | --- | --- |
| [2H]C([2H])([2H])N(C(=O)Oc1c(N2CCN(CC(O)CNC)C2=O)cc(C(F)(F)F)cc1C(F)(F)F)c1ccc(F)cc1 (stereo not shown) [RTx-283, 2-(3-(2-Hydroxy-3-(methylamino)propyl)-2-oxoimidazolidin-1-yl)-4,6-bis(trifluoromethyl)phenyl (4-fluorophenyl)(methyl-d3)carbamate] | 6.1 | > 200 | 0.03 | > 10 | > 100 | 0.06 |  |  |  |  |  |  |  |  |
| [2H]C([2H])([2H])N(C(=O)Oc1c(N2CCN(CC(O)CN(C)C)C2=O)cc(C(F)(F)F)cc1C(F)(F)F)c1ccc(F)cc1 (stereo not shown) [RTx-284, 2-{3-[3-(Dimethylamino)-2-hydroxypropyl]-2-oxoimidazolidin-1-yl}-4,6-bis(trifluoromethyl)phenyl N-(4-fluorophenyl)-N-(methyl-d3)-carbamate] | 5.5 | > 200 | 0.11 | > 10 | > 100 | 0.087 | strong synergy | no inhibition | selective killing of multiple HRD cells |  |  |  |  |  |
| [2H]C([2H])([2H])N(C(=O)Oc1c(N2CCN(C[C@H](O)CN(C)C)C2=O)cc(C(F)(F)F)cc1C(F)(F)F)c1ccc(F)cc1 [RTx-303] | 5.1 | > 200 |  |  |  |  |  | no significant inhibition | selective killing of HRD cells | synergistic activity | 50.6 | 0.0812 | 13.2 | 9.8 |
| [2H]C([2H])([2H])N(C(=O)Oc1c(N2CCN(C[C@H](O)CNC)C2=O)cc(C(F)(F)F)cc1C(F)(F)F)c1ccc(F)cc1 [RTx-315] | 13.6 |  |  |  |  |  |  |  |  |  | 121 |  | 31.9 | 7.1 |
